These compounds were tested on human liver microsomes, metabolic stability half-life (assay: NCATS Human Liver Microsomal (HLM) Stability Profiling). Conditions: higher = more stable; screened at 1 µM (by protocol).
Text: Assay submitter (PI): Dr. Pranav Shah
NIH Center for Advancing Translational Sciences
Pharmacokinetic issues were the leading cause of drug attrition, accounting for approximately 40% of all cases before the turn of the century. To this end, several high-throughput in vitro assays like microsomal stability have been developed to evaluate the pharmacokinetic profiles of compounds in early stages of drug discovery. At NCATS, a single-point rat liver microsomal (RLM) stability assay is used as a Tier I assay, while human liver microsomal (HLM) stability is employed as a Tier II assay. While it is beneficial to have compound libraries screened for HLM stability, the increasing magnitude of hits routinely generated, and the time- and re-source-intensive nature of the assay makes it important to find alternatives. One strategy is to rely on in silico models that have been developed using data generated from these assays. Herein, we describe the development of an HLM stability prediction model using our in-house dataset of ~7,000 compounds, employing both traditional and advanced machine learning methods. Additionally, the strong correlation between our RLM and HLM data was further reinforced by the fact that our HLM model performance improved after adding RLM stability predictions as an input descriptor. […] The best model along with a subset of our dataset has been made publicly accessible on the NCATS@ADME website for the benefit of the greater drug discovery community.
Microsomal Stability Assay
The substrate depletion method, also called the in vitro t1/2 method was used to analyze test compounds. Incubation and liquid handling were carried out using a previously described method (Shah et al., 2016). Briefly, each reaction mixture (110 µL) consisted of a test article (1 µM), human liver microsomes (0.5 mg/mL), and NADPH regenerating system in phosphate buffer at pH 7.4. Samples were incubated in 384-well plates at 37 degrees C for 0, 5, 10, 15, 30 and 60 min. At each time point, 10 µL of the incubation mixture was aspirated into another 384-well plate which contained cold acetonitrile (ACN) with internal standard (albendazole). All plates were centrifuged at 3000 rpm for 20 min at 4 degrees C, and the supernatants were transferred to a 384-well injection plate. Sample quantification and analysis was performed using a previously described method (Shah et al., 2016, Siramshetty et al., 2020).
1: Shah, P. et al. An Automated High-Throughput Metabolic Stability Assay Using an Integrated High-Resolution Accurate Mass Method and Automated Data Analysis Software. Drug Metab Dispos 44, 1653-1661 (2016).
2: Siramshetty et al. Retrospective assessment of rat liver microsomal stability at NCATS: data and QSAR models. Sci Rep 26;10(1):20713 (2020).

SMILES | half-life
C=CC(=O)Nc1ccc2ncnc(Nc3cccc(Br)c3)c2c1 | 12.5 min
CCOc1ccc(S(=O)(=O)NCCc2sc(-c3ccc(C)cc3)nc2C)cc1 | 4.09 min
CCCSP(=S)(OCC)Oc1ccc(SC)cc1 (centres undefined) | > 120 min
CN(C)CC/C=C1\c2ccccc2Sc2ccc(Cl)cc21 | 24.3 min
CCC(C)(C)c1ccc(CC(C)CN2C[C@@H](C)O[C@@H](C)C2)cc1 (some centres undefined) | 12.2 min
COc1ccc(-c2oc3ncn4nc(COc5c(C)cccc5C)nc4c3c2-c2ccc(OC)cc2)cc1 | 13.2 min
O=c1[nH]c2cccc(N3CCN(Cc4ccc(-c5ccccc5)cc4)CC3)c2o1 | 31.7 min
OC1(c2ccc(Cl)cc2)CCNCC1 | > 120 min
OCCN1CCN(CCCN2c3ccccc3C=Cc3ccccc32)CC1 | > 120 min
CCC(=O)N[C@@H]1Cc2ccccc2[C@H](c2ccccc2)C1 | 46.1 min
CCc1cc(-c2n[nH]c(C)c2-c2ccc3c(c2)OCCO3)c(O)cc1O | 13.4 min
CCC(=C(c1ccc(OCCN2CCCC2)cc1)c1ccc(OCCN2CCCC2)cc1)c1ccccc1 | > 120 min
Cc1noc(C)c1-c1cc(O)cc(C(O)c2ccccc2)c1 (centres undefined) | 46.2 min
CCCNC(=O)C1CCC(Cn2c(=O)c3sccc3n(CC(=O)NCc3ccccc3)c2=O)CC1 (centres undefined) | 11.2 min
O=C(NC1CCN(CCCCC2(C(=O)NCC(F)(F)F)c3ccccc3-c3ccccc32)CC1)c1ccccc1-c1ccc(C(F)(F)F)cc1 | 13.5 min
COc1cc(Nc2nc3ccccc3nc2NS(=O)(=O)c2ccc(NC(=O)c3ccc(C)c(OC)c3)cc2)cc(OC)c1 | > 120 min
CC(=O)N1CCN([C@H]2CCN(C(=O)N(C)[C@H](C)c3cc(C(F)(F)F)cc(C(F)(F)F)c3)[C@@H](c3ccc(F)cc3C)C2)CC1 | 12.8 min
CCN[C@H]1C[C@H](C)S(=O)(=O)C2SC(S(N)(=O)=O)C=C21 (some centres undefined) | 105 min
Cc1cccc(N2CCN(C(=O)c3cccn3-c3nnc(N4CCCCC4)s3)CC2)c1C | 3.17 min
C[C@@H]1C[C@H]2[C@@H]3C[C@H](F)C4=CC(=O)C(Cl)=C[C@]4(C)[C@@]3(F)[C@@H](O)C[C@]2(C)[C@@]1(O)C(=O)CO | 46.3 min
CNP(=O)(OC)Oc1ccc(C(C)(C)C)cc1Cl (centres undefined) | 47.5 min
CN(C)c1nc(NC2CCC(NCCc3ccc(Br)cc3OC(F)(F)F)CC2)nc2ccccc12 (centres undefined) | > 120 min
COCCc1ccc(OC[C@H](O)CNC(C)C)cc1 | > 120 min
Cc1nc(N)ncc1-c1nc(N2CCOCC2)c2sc(C(C)(C)O)cc2n1 | > 120 min
CCCCCCCCC=CCCCCCCCC(=O)NCCOC(=O)CC(C(=O)O)S(=O)(=O)O (centres undefined) | > 120 min

SMILES | half-life
O=C(O)CC1CCC(c2ccc(-c3ccc(Nc4ccc(C(F)(F)F)nc4)cn3)cc2)CC1 (centres undefined) | > 120 min
CCCCC(=O)O[C@]1(C(=O)CO)[C@@H](C)C[C@H]2[C@@H]3CCC4=CC(=O)C=C[C@]4(C)[C@@]3(F)[C@@H](O)C[C@@]21C | 4.35 min
C[C@]12Cc3cn[nH]c3C[C@@H]1CC[C@@H]1[C@@H]2CC[C@@]2(C)[C@H]1CC[C@]2(C)O | 24 min
COc1cc(Nc2nc3c(s2)CCCC3c2ccccc2)ccc1-n1cnc(C)c1 (centres undefined) | 31 min
CCOC(=O)c1cccnc1 | 9.43 min
CCSC(=O)N1CCCCCC1 | 27.7 min
O=C(Nc1cccc(-c2nc3cc(Cl)ccc3o2)c1)c1ccccc1 | 5.41 min
COc1cc2c(Nc3ccc(Cl)c(Cl)c3F)ncnc2cc1OCC1C[C@@H]2CN(C)C[C@@H]2C1 (some centres undefined) | 61.9 min
Cn1c(=O)c2c(ncn2CCO)n(C)c1=O | > 120 min
CC1(c2ccccc2)N(Cc2ccccc2)C(=O)OC12CCN(Cc1ccc(C(=O)O)cc1)CC2 (centres undefined) | > 120 min
CC(C)(C)c1coc([C@@H]2COCCN2Cc2ccc(C(=O)O)cc2)n1 | 80.9 min
CCOP(=O)(OCC)Oc1cc(C)nc(C(C)C)n1 | 99.9 min
CCOP(=S)(OCC)Oc1cc(Cl)c(Br)cc1Cl | 57.6 min
C/C=C(/C(=C/C)c1ccc(OC(C)=O)cc1)c1ccc(OC(C)=O)cc1 | > 120 min
O=C(O)c1ccccc1NCCc1ccccc1 | 23.8 min
COc1ccc(C2Nc3ccccc3C(=O)N2Cc2ccco2)cc1COc1ccc(NC(C)=O)cc1 (centres undefined) | 2.15 min
COc1cc(C(=O)N2CCCCCCC2)cc(OC)c1OC | 29.3 min
CN(C)[C@@H]1C(=O)C(C(N)=O)=C(O)[C@@]2(O)C(=O)C3=C(O)c4c(O)ccc(Cl)c4[C@@H](O)[C@H]3C[C@@H]12 | > 120 min
Cc1cccc(/C=N/Nc2cc(N3CCOCC3)n3nc(-c4ccncc4)cc3n2)c1 | 23.1 min
O=C(N[C@@H](COc1ccc2[nH]c(=O)[nH]c2c1)c1ccccc1)c1cccn(Cc2ccc(F)c(F)c2)c1=O | 42.5 min
CCOC(=O)c1c(NC(=O)c2ccc(S(=O)(=O)N(C)C3CCCCC3)cc2)sc2c1CCN(C(C)C)C2 | 2.21 min
CNc1nccc(-c2cccnc2Oc2cc(C(=O)Nc3cccc(C(F)(F)F)c3)ccc2C)n1 | 11.3 min
Cc1cc(C)c(-n2cc(C)c3c(Cl)nc(C)nc32)c(C)c1 | 10.1 min
O=C(CCBr)N1CCN(C(=O)CCBr)CC1 | > 120 min
CN(C)CC#CCCC(=O)C(O)(c1ccccc1)C1CCC1 (centres undefined) | 102 min

SMILES | half-life
O=C(Cn1cnc2onc(-c3ccc(F)cc3)c2c1=O)Nc1cccc(C(F)(F)F)c1 | 40.4 min
COc1cc(=O)n2c(c1C(=O)NCc1ccc3c(c1)OCO3)CCN(C(=O)c1ccc(C)cc1C)CC2 | 34.4 min
COC(=O)/C=C\C(=O)OC | > 120 min
Cc1cc(O)c2c(c1)C(=O)c1cccc(O)c1C2=O | 1.86 min
COCC1(CO)C(=O)C2CCN1CC2 (centres undefined) | > 120 min
CCCN(CCC)CCc1cccc2c1CC(=O)N2 | > 120 min
O=C(c1cnn(-c2cccc(F)c2)c1-n1cccc1)N1CCN(c2ccccc2F)CC1 | 9.4 min
CN1CCN(C2CCC(n3cc(-c4ccc(Oc5ccccc5)cc4)c4c(N)ncnc43)CC2)CC1 (centres undefined) | 58.6 min
CCOCc1cc(CN2CCN(c3cccc(C(F)(F)F)c3)CC2)c(O)c2ncccc12 | 12.6 min
C[C@]12CCC(=O)C=C1[C@@H]1C[C@@H]1[C@H]1[C@@H]3[C@@H]4C[C@@H]4[C@@]4(CCC(=O)O4)[C@@]3(C)CC[C@@H]12 | > 120 min
COc1cc(NS(=O)(=O)c2ccc(N)cc2)nc(OC)n1 | > 120 min
CCC1CCCCN1CC(=O)N1CCCc2c1c(=O)oc1ccc(OCc3ccccc3)cc21 (centres undefined) | 0.54 min
CCCc1ccc(OCC(=O)N2CCN(C(=O)COc3ccc(CCC)cc3OC)CC2)c(OC)c1 | 2.8 min
Cc1cccc(N2CCN(C(=O)c3cn(C4CCCCC4)c(=O)c4c3c3ccccc3n4C)CC2)c1C | 0.76 min
CC1=C(C(=O)Nc2cc3cn[nH]c3cc2F)C(c2ccc(Cl)cc2F)N=C(c2ccnc(Cl)c2)N1 (centres undefined) | 14.2 min
CN(C)c1cc2c(cc1Sc1nc3c(N)nccc3n1CCNCC(C)(C)C)OCO2 | 3.18 min
Cc1nc(N)nc(N)c1-c1ccc(Cl)c(Cl)c1 | > 120 min
CC(=O)N1CCC(Cc2ccc(C(=O)NC3CC3)cc2)CC1 | > 120 min
CC(=O)C1=C(c2ccc(Cl)c(Cl)c2)N(C(C)=O)n2cnnc2S1 | 4.52 min
CC(C)(C)Nc1nc(Nc2ccc(C(N)=O)cc2)cc(N)c1C#N | > 120 min
CC(=O)Nc1nnc(S(N)(=O)=O)s1 | > 120 min
O=C(c1ccc(F)cc1)N1CCC(C(=O)N2CCC(N3Cc4ccccc4C3=O)CC2)CC1 | > 120 min
CCOc1ccc(NC(=O)CC(C)O)cc1 (centres undefined) | > 120 min
COc1ccc(-c2cc3onc(-c4ccncc4)c3c(=O)n2C)cc1 | > 120 min
